Assay results: US20100267561A1, “HERBICIDAL PYRIDAZINONE DERIVATIVES” (priority 2007, published 2010)

Experiments:
Type in all cases: in vivo
[1] = tested on: windgrass (Apera spica-venti); test: Test B postemergence plant response; details: for Plant response rating, Windgrass: Postemergence
Method in brief: (§1)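 Visual injury ratings on a 0–100 scale, where 100 means complete control, were made 13 to 15 days after postemergence treatment of greenhouse-grown plants at the 1- to 4-leaf stage.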

[2] = tested on: canarygrass (Phalaris minor); test: Test B postemergence plant response; details: for Plant response rating, Canarygrass: Postemergence
Method in brief: as §1

[3] = tested on: winter barley (Hordeum vulgare); test: Test B postemergence plant response; details: for Plant response rating, Barley: Postemergence, scale 0 to 100, 0 no effect, 100 complete control
Method in brief: as §1

[4] = tested on: pigweed (Amaranthus retroflexus); test: Test C pre-/postemergence plant response
Method in brief: (§2)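 Pre- and postemergence treatment, visual 0–100 rating vs controls at 15–25 days.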

[5] = tested on: green foxtail (Setaria viridis); test: Test C pre-/postemergence plant response
Method in brief: as §2

[6] = tested on: winter wheat (Triticum aestivum); test: Test C pre-/postemergence plant response
Method in brief: as §2

[7] = tested on: windgrass (Apera spica-venti); test: Test C pre-/postemergence plant response
Method in brief: as §2

[8] = tested on: spring barley (Hordeum vulgare); test: Test C pre-/postemergence plant response
Method in brief: as §2

[9] = tested on: canarygrass (Phalaris minor); test: Test C pre-/postemergence plant response; details: Preemergence
Method in brief: as §2

[10] = tested on: downy bromegrass (Bromus tectorum); test: Test C pre-/postemergence plant response
Method in brief: as §2

[11] = tested on: Italian ryegrass (Lolium multiflorum); test: Test C pre-/postemergence plant response
Method in brief: as §2

[12] = tested on: winter barley (Hordeum vulgare); test: Test C pre-/postemergence plant response
Method in brief: as §2

[13] = tested on: spring wheat (Triticum aestivum); test: Test C pre-/postemergence plant response
Method in brief: as §2

[14] = tested on: wild mustard (Sinapis arvensis); test: Test C pre-/postemergence plant response
Method in brief: as §2

[15] = tested on: annual bluegrass (Poa annua); test: Test C pre-/postemergence plant response
Method in brief: as §2

[16] = tested on: blackgrass (Alopecurus myosuroides); test: Test C pre-/postemergence plant response
Method in brief: as §2

wild oat (Avena fatua) = test: Test C pre-/postemergence plant response
Method in brief: as §2

[17] = 8 g ai/ha, postemergence, 0-100 scale
[18] = 62 g ai/ha, scale 0 to 100, 0 no effect, 100 complete control
[19] = Postemergence, 8 g ai/ha, scale 0 to 100, 0 no effect, 100 complete control
[20] = Postemergence, 16 g ai/ha, scale 0 to 100, 0 no effect, 100 complete control
[21] = Postemergence, 31 g ai/ha, scale 0 to 100, 0 no effect, 100 complete control
[22] = Postemergence, 62 g ai/ha, scale 0 to 100, 0 no effect, 100 complete control
[23] = Preemergence, 8 g ai/ha, scale 0 to 100 (0 no effect, 100 complete control)
[24] = Preemergence, 16 g ai/ha, scale 0 to 100 (0 no effect, 100 complete control)
[25] = Preemergence, 31 g ai/ha, scale 0 to 100 (0 no effect, 100 complete control)
[26] = Preemergence, 62 g ai/ha, scale 0 to 100, 0 no effect, 100 complete control

Cc1cc(-c2ccc(Cl)cc2)nn1-c1c(OC(=O)OCC(C)C)cnn(C)c1=O [Compound 57]
Windgrass plant response rating [1, 17]: 50 | Plant response rating, Windgrass ([1]; 16 g ai/ha, scale 0 to 100): 50 | Plant response rating, Windgrass ([1]; 31 g ai/ha, scale 0 to 100): 55 | Plant response rating, Windgrass [1, 18]: 70 | Canarygrass plant response rating [2, 17]: 0 | Plant response rating, Canarygrass ([2]; 16 g ai/ha, scale 0 to 100): 0 | Plant response rating, Canarygrass ([2]; 31 g ai/ha, scale 0 to 100): 0 | Plant response rating, Canarygrass [2, 18]: 60 | Barley plant response rating [3, 17]: 0 | Plant response rating, Barley ([3]; 16 g ai/ha): 0 | Plant response rating, Barley ([3]; 31 g ai/ha): 0 | Plant response rating, Barley ([3]; 62 g ai/ha): 40 | Plant response rating, Pigweed [4, 19]: 0 | Plant response rating, Pigweed [4, 20]: 0 | Plant response rating, Pigweed [4, 21]: 0 | Plant response rating, Pigweed [4, 22]: 0 | Plant response rating, Pigweed [4, 23]: 0 | Plant response rating, Pigweed [4, 24]: 0 | Plant response rating, Pigweed [4, 25]: 0 | Plant response rating, Pigweed [4, 26]: 0 | Plant response rating, Foxtail, Green [5, 19]: 90 | Plant response rating, Foxtail, Green [5, 20]: 100 | Plant response rating, Foxtail, Green [5, 21]: 100 | Plant response rating, Foxtail, Green [5, 22]: 100 | Plant response rating, Foxtail, Green [5, 23]: 40 | Plant response rating, Foxtail, Green [5, 24]: 100 | Plant response rating, Foxtail, Green [5, 25]: 100 | Plant response rating, Foxtail, Green [5, 26]: 100 | Plant response rating, Wheat, Winter [6, 19]: 0 | Plant response rating, Wheat, Winter [6, 20]: 30 | Plant response rating, Wheat, Winter [6, 21]: 30 | Plant response rating, Wheat, Winter [6, 22]: 50 | Plant response rating, Wheat, Winter [6, 23]: 15 | Plant response rating, Wheat, Winter [6, 24]: 15 | Plant response rating, Wheat, Winter [6, 25]: 20 | Plant response rating, Wheat, Winter [6, 26]: 65 | Plant response rating, Windgrass [7, 19]: 0 | Plant response rating, Windgrass [7, 20]: 0 | Plant response rating, Windgrass [7, 21]: 0 | Plant response rating, Windgrass [7, 22]: 65 | Plant response rating, Windgrass [7, 23]: 0 | Plant response rating, Windgrass [7, 24]: 0 | Plant response rating, Windgrass [7, 25]: 50 | Plant response rating, Windgrass [7, 26]: 75 | Plant response rating, Barley, Spring [8, 19]: 0 | Plant response rating, Barley, Spring [8, 20]: 20 | Plant response rating, Barley, Spring [8, 21]: 30 | Plant response rating, Barley, Spring [8, 22]: 40 | Plant response rating, Barley, Spring [8, 23]: 0 | Plant response rating, Barley, Spring [8, 24]: 0 | Plant response rating, Barley, Spring [8, 25]: 20 | Plant response rating, Barley, Spring [8, 26]: 40 | Plant response rating, Canarygrass ([9]; 8 g ai/ha, scale 0 to 100 (0 no effect, 100 complete control)): 0 | Plant response rating, Canarygrass ([9]; 16 g ai/ha, scale 0 to 100 (0 no effect, 100 complete control)): 75 | Plant response rating, Canarygrass ([9]; 31 g ai/ha, scale 0 to 100 (0 no effect, 100 complete control)): 80 | Plant response rating, Canarygrass [9, 18]: 90 | Plant response rating, Bromegrass, Downy [10, 19]: 0 | Plant response rating, Bromegrass, Downy [10, 20]: 30 | Plant response rating, Bromegrass, Downy [10, 21]: 30 | Plant response rating, Bromegrass, Downy [10, 22]: 70 | Plant response rating, Bromegrass, Downy [10, 23]: 0 | Plant response rating, Bromegrass, Downy [10, 24]: 20 | Plant response rating, Bromegrass, Downy [10, 25]: 40 | Plant response rating, Bromegrass, Downy [10, 26]: 80 | Plant response rating, Ryegrass, Italian [11, 19]: 75 | Plant response rating, Ryegrass, Italian [11, 20]: 98 | Plant response rating, Ryegrass, Italian [11, 21]: 100 | Plant response rating, Ryegrass, Italian [11, 22]: 100 | Plant response rating, Ryegrass, Italian [11, 23]: 65 | Plant response rating, Ryegrass, Italian [11, 24]: 85 | Plant response rating, Ryegrass, Italian [11, 25]: 100 | Plant response rating, Ryegrass, Italian [11, 26]: 100 | Plant response rating, Barley, Winter [12, 19]: 0 | Plant response rating, Barley, Winter [12, 20]: 15 | Plant response rating, Barley, Winter [12, 21]: 15 | Plant response rating, Barley, Winter [12, 22]: 90 | Plant response rating, Barley, Winter [12, 23]: 0 | Plant response rating, Barley, Winter [12, 24]: 0 | Plant response rating, Barley, Winter [12, 25]: 20 | Plant response rating, Barley, Winter [12, 26]: 60 | Plant response rating, Wheat, Spring [13, 19]: 0 | Plant response rating, Wheat, Spring [13, 20]: 25 | Plant response rating, Wheat, Spring [13, 21]: 75 | Plant response rating, Wheat, Spring [13, 22]: 75 | Plant response rating, Wheat, Spring [13, 23]: 20 | Plant response rating, Wheat, Spring [13, 24]: 20 | Plant response rating, Wheat, Spring [13, 25]: 65 | Plant response rating, Wheat, Spring [13, 26]: 90 | Plant response rating, Mustard, Wild [14, 19]: 0 | Plant response rating, Mustard, Wild [14, 20]: 0 | Plant response rating, Mustard, Wild [14, 21]: 0 | Plant response rating, Mustard, Wild [14, 22]: 0 | Plant response rating, Mustard, Wild [14, 23]: 0 | Plant response rating, Mustard, Wild [14, 24]: 0 | Plant response rating, Mustard, Wild [14, 25]: 0 | Plant response rating, Mustard, Wild [14, 26]: 0 | Plant response rating, Bluegrass [15, 19]: 0 | Plant response rating, Bluegrass [15, 20]: 10 | Plant response rating, Bluegrass [15, 21]: 30 | Plant response rating, Bluegrass [15, 22]: 35 | Plant response rating, Bluegrass [15, 23]: 0 | Plant response rating, Bluegrass [15, 24]: 30 | Plant response rating, Bluegrass [15, 25]: 50 | Plant response rating, Bluegrass [15, 26]: 65 | Plant response rating, Blackgrass [16, 19]: 35 | Plant response rating, Blackgrass [16, 20]: 75 | Plant response rating, Blackgrass [16, 21]: 98 | Plant response rating, Blackgrass [16, 23]: 75 | Plant response rating, Blackgrass [16, 24]: 85 | Plant response rating, Blackgrass [16, 25]: 95 | Plant response rating, Blackgrass [16, 26]: 95 | Plant response rating, Oat, Wild (wild oat (Avena fatua); [19]): 10 | Plant response rating, Oat, Wild (wild oat (Avena fatua); [20]): 90 | Plant response rating, Oat, Wild (wild oat (Avena fatua); [21]): 90 | Plant response rating, Oat, Wild (wild oat (Avena fatua); [22]): 100 | Plant response rating, Oat, Wild (wild oat (Avena fatua); [23]): 0 | Plant response rating, Oat, Wild (wild oat (Avena fatua); [24]): 15 | Plant response rating, Oat, Wild (wild oat (Avena fatua); [25]): 60 | Plant response rating, Oat, Wild (wild oat (Avena fatua); [26]): 80
